Source: ChEMBL document CHEMBL4152218, “Novel hydrazide-hydrazone and amide substituted coumarin derivatives: Synthesis, cytotoxicity screening, microarray, radiolabeling and in vivo pharmacokinetic studies” (Eur J Med Chem, 2018)

Legend:
PANC-1 = experiment: Antiproliferative activity against human PANC1 cells after 48 hrs by resazurin dye-based fluorescence assay; format: functional, cell-based; details: PANC-1, 48 h
HepG2 = experiment: Antiproliferative activity against human HepG2 cells after 48 hrs by resazurin dye-based fluorescence assay; format: functional, cell-based; details: HepG2, 48 h
TERT-RPE1 [1] = experiment: Cytotoxicity against hTERT-RPE1 cells after 48 hrs by resazurin dye-based fluorescence assay; format: cell-based; details: Homo sapiens, RPE-1, 48 h
hTERT-BJ [2] = experiment: Cytotoxicity against hTERT-BJ cells at 50 uM after 48 hrs by resazurin dye-based fluorescence assay relative to control; format: cell-based; details: human
[3] = Selectivity index, ratio of IC50 for hTERT-BJ cells to IC50 for human PANC1 cells; format: toxicity; details: hTERT-BJ cells versus PANC1 cells, read-out: Ratio IC50
CCRF-CEM = experiment: Antiproliferative activity against human CCRF-CEM cells after 48 hrs by resazurin dye-based fluorescence assay; format: functional, cell-based
[4] = Selectivity index, ratio of IC50 for hTERT-RPE1 cells to IC50 for human PANC1 cells; format: toxicity; details: hTERT-RPE1 cells versus PANC1 cells, read-out: Ratio IC50
hTERT-BJ [5] = experiment: Cytotoxicity against hTERT-BJ cells after 48 hrs by resazurin dye-based fluorescence assay; format: cell-based; details: Homo sapiens
[6] = Selectivity index, ratio of IC50 for hTERT-BJ cells to IC50 for human HepG2 cells; format: toxicity; details: hTERT-BJ cells versus HepG2 cells, read-out: Ratio IC50
TERT-RPE1 [7] = experiment: Cytotoxicity against hTERT-RPE1 cells at 25 uM after 48 hrs by resazurin dye-based fluorescence assay relative to control; format: cell-based; details: human, tert-rpe1, 48 h
hTERT-BJ [8] = experiment: Cytotoxicity against hTERT-BJ cells at 6.25 uM after 48 hrs by resazurin dye-based fluorescence assay relative to control; format: cell-based; details: human
[9] = Selectivity index, ratio of IC50 for hTERT-RPE1 cells to IC50 for human CCRF-CEM cells; format: toxicity; details: hTERT-RPE1 cells versus CCRF-CEM cells, read-out: Ratio IC50
[10] = Selectivity index, ratio of IC50 for hTERT-BJ cells to IC50 for human CCRF-CEM cells; format: toxicity; details: hTERT-BJ cells versus CCRF-CEM cells, read-out: Ratio IC50
TERT-RPE1 [11] = experiment: Cytotoxicity against hTERT-RPE1 cells at 12.50 uM after 48 hrs by resazurin dye-based fluorescence assay relative to control; format: cell-based; details: human, tert-rpe1, 48 h, 12.5 µM
TERT-RPE1 [12] = experiment: Cytotoxicity against hTERT-RPE1 cells at 50 uM after 48 hrs by resazurin dye-based fluorescence assay relative to control; format: cell-based; details: human, tert-rpe1, 48 h
hTERT-BJ [13] = experiment: Cytotoxicity against hTERT-BJ cells at 12.50 uM after 48 hrs by resazurin dye-based fluorescence assay relative to control; format: cell-based; details: human, 12.5 µM
[14] = Selectivity index, ratio of IC50 for hTERT-RPE1 cells to IC50 for human HepG2 cells; format: toxicity; details: hTERT-RPE1 cells versus HepG2 cells, read-out: Ratio IC50
hTERT-BJ [15] = experiment: Cytotoxicity against hTERT-BJ cells at 25 uM after 48 hrs by resazurin dye-based fluorescence assay relative to control; format: cell-based; details: human
TERT-RPE1 [16] = experiment: Cytotoxicity against hTERT-RPE1 cells at 6.25 uM after 48 hrs by resazurin dye-based fluorescence assay relative to control; format: cell-based; details: human, tert-rpe1, 48 h

| SMILES | IC50 (PANC-1) | IC50 (HepG2) | IC50 (TERT-RPE1 [1]) | Activity (hTERT-BJ [2]) | selectivity ratio [3] | IC50 (CCRF-CEM) | selectivity ratio [4] | IC50 (hTERT-BJ [5]) | selectivity ratio [6] | Activity (TERT-RPE1 [7]) | Activity (hTERT-BJ [8]) | selectivity ratio [9] | selectivity ratio [10] | Activity (TERT-RPE1 [11]) | Activity (TERT-RPE1 [12]) | Activity (hTERT-BJ [13]) | selectivity ratio [14] | Activity (hTERT-BJ [15]) | Activity (TERT-RPE1 [16]) |
| --- | --- | --- | --- | --- | --- | --- | --- | --- | --- | --- | --- | --- | --- | --- | --- | --- | --- | --- | --- |
| Cc1noc(NS(=O)(=O)c2ccc(NC(=O)c3cc4ccc(O)cc4oc3=O)cc2)c1C | 16.2 µM | 38.8 µM | > 50 µM | 5% | > 3.09 | 21.5 µM | > 3.09 | > 50 µM | > 1.29 | 5.92% | 1.17% | > 2.33 | > 2.33 | 5.89% | 5.78% | 3.52% | > 1.29 | 3.63% | 0.99% |
| O=C(N/N=C/c1cccnc1)c1cc2cc(Br)ccc2oc1=O | 8.35 µM | 19 µM | > 50 µM | 2.33% | > 5.99 | 3.71 µM | > 5.99 | > 50 µM | > 2.63 | 25.4% | 0.86% | > 13.5 | > 13.5 | 12.55% | 34.12% | 0.78% | > 2.63 | 1.7% | 6.64% |
| COc1cccc2c1C(=O)c1c(O)c3c(c(O)c1C2=O)C[C@@](O)(C(=O)CO)C[C@@H]3O[C@H]1C[C@H](N)[C@H](O)[C@H](C)O1 [DOXORUBICIN] | 6.9 µM | 5.43 µM | < 6.25 µM |  | < 0.91 | 1.05 µM | < 0.91 | < 6.25 µM | < 1.15 |  |  | < 5.95 | < 5.95 |  |  |  | < 1.15 |  |  |
| CCOc1ccc(NC(=O)c2cc3ccccc3oc2=O)cc1 | 13.4 µM | 10.4 µM | > 50 µM | 3.08% | > 3.74 | 17.9 µM | > 3.74 | > 50 µM | > 4.83 | 22.19% | 0.59% | > 2.79 | > 2.79 | 12.77% | 23.27% | 2.4% | > 4.83 | 2.82% | 7.48% |
| CCOc1ccc(NC(=O)c2cc3cc([N+](=O)[O-])ccc3oc2=O)cc1 | 12.1 µM | 28.3 µM | > 50 µM | 6.11% | > 4.13 | 13.2 µM | > 4.13 | > 50 µM | > 1.77 | 8.22% | 3.1% | > 3.78 | > 3.78 | 6.01% | 9.35% | 1.66% | > 1.77 | 5.22% | 5.12% |
| O=C(N/N=C/c1cc2ccccc2nc1Cl)c1cc2cc([N+](=O)[O-])ccc2oc1=O | 38.8 µM | 22.8 µM | > 50 µM | 2.73% | > 1.29 | 26 µM | > 1.29 | > 50 µM | > 2.2 | 1.96% | 1.2% | > 1.92 | > 1.92 | 0.73% | 2.33% | 1.37% | > 2.2 | 1.77% | 1.3% |
| O=C(N/N=C/c1ccncc1)c1cc2cc([N+](=O)[O-])ccc2oc1=O | 26.1 µM | 15.8 µM | > 50 µM | 7.55% | > 1.92 | 13 µM | > 1.92 | > 50 µM | > 3.15 | 11.23% | 0.78% | > 3.86 | > 3.86 | 10.1% | 13.97% | 5.5% | > 3.15 | 6.48% | 6.97% |
| CCOc1ccc2nc(Cl)c(/C=N/NC(=O)c3cc4cc(Br)ccc4oc3=O)cc2c1 | 17 µM | 29 µM | > 50 µM | 2.67% | > 2.94 | 12.9 µM | > 2.94 | > 50 µM | > 1.72 | 13.67% | 0.53% | > 3.87 | > 3.87 | 12.4% | 20.15% | 1.77% | > 1.72 | 2.63% | 5.41% |
| Cc1noc(NS(=O)(=O)c2ccc(NC(=O)c3cc4cc([N+](=O)[O-])ccc4oc3=O)cc2)c1C | 11.9 µM | 15 µM | > 50 µM | 10.27% | > 4.19 | 14.3 µM | > 4.19 | > 50 µM | > 3.34 | 4.79% | 2.53% | > 3.49 | > 3.49 | 2.5% | 4.06% | 4.43% | > 3.34 | 7.18% | 1.27% |
| O=C(N/N=C/c1cccnc1)c1cc2cc([N+](=O)[O-])ccc2oc1=O | 11.8 µM | 17 µM | > 50 µM | 3.99% | > 4.24 | 17.1 µM | > 4.24 | > 50 µM | > 2.94 | 10.95% | 3.59% | > 2.92 | > 2.92 | 2.22% | 17.11% | 5.49% | > 2.94 | 3.22% | 1.1% |
| CCOc1ccc2nc(Cl)c(/C=N/NC(=O)c3cc4ccccc4oc3=O)cc2c1 | 29.9 µM | 33.1 µM | > 50 µM | 3.64% | > 1.67 | 6.32 µM | > 1.67 | > 50 µM | > 1.51 | 9.5% | 2.77% | > 7.92 | > 7.92 | 1.23% | 9.97% | 5.65% | > 1.51 | 3.92% | 1.13% |
| O=C(N/N=C/c1cccnc1)c1cc2ccc(O)cc2oc1=O | 2.52 µM | 18.4 µM | > 50 µM | 2.27% | > 19.8 | 14.1 µM | > 19.8 | > 50 µM | > 2.72 | 14.34% | 0.5% | > 3.55 | > 3.55 | 12.79% | 20.79% | 1.26% | > 2.72 | 1.99% | 8.83% |
| Cc1noc(NS(=O)(=O)c2ccc(NC(=O)c3cc4cc(Br)ccc4oc3=O)cc2)c1C | 28.7 µM | 8.8 µM | > 50 µM | 13.26% | > 1.74 | 14.6 µM | > 1.74 | > 50 µM | > 5.68 | 12.79% | 0.95% | > 3.43 | > 3.43 | 10.36% | 26.26% | 1.2% | > 5.68 | 3.04% | 1.84% |
